Assay results taken from patent US20030157101A1, “Immunogenic ALK peptides” (priority 2001, published 2003).
Several values for one entry are separate records, joined by “and”; a condition that tells them apart may be missing. Identical values can stand only once. Entries after “also recorded” stand apart in the source; their conditions may differ.

Tests used:
[1] = system: HLA-A*0201 monochain transgenic (HHD) mice; test: In vivo immunogenicity of ALK-derived peptides in HHD mice (51Cr-release on peptide-pulsed RMA-S/HHD cells); details: for R/T HHD mice (responder versus tested mice): 100 μg peptide s.c. in IFA, responder = specific lysis at least 15% above lysis of unloaded RMA-S/HDD; for % lysis of peptide-loaded RMA-S/HHD cells: E:T ratio 60:1, maximal lysis observed for each responder mouse
healthy donor PBLs = test: Stimulation of ALK-specific CTLs from healthy donor PBLs; assay type: cell-based, human; details: three donors tested per peptide; lysis of peptide loaded T2 cells and NPM/ALK-positive lymphoma lines
Protocol: Blood was collected from HLA-A*0201 normal volunteer donors. PBMC were isolated from whole blood by Ficoll/Hypaque (Pharmacia, Uppsala, Sweden) density gradient centrifugation. Dendritic cells (DCs) were generated according to the protocol of Sallusto and Lanzavecchia (Sallusto F. et al., (1994) J Exp Med. 179: 1109-1118). Adherent monocyte-enriched peripheral blood mononuclear cells (PBMCs) were cultured in RPMI 1640 medium supplemented with 10% FCS, 20 ng/ml recombinant human interleukin (IL)-4 (R&D Systems, Minneapolis, Minn.) and 800 U/ml recombinant human granulocyte-macrophage colony-stimulating factor (GM-CSF) (Sandoz, Basel, Switzerland). On day 5 of culture, 10 ng/ml recombinant human tumor necrosis factor (TNF)-α (Knoll, Ludwigshafen, Germany) was added to the medium. After 40 hrs, the surface phenotype of monocyte-derived DCs was determined by single-color flow cytometry using the following mAbs: fluorescein-conjugated anti-CD1a ([…], Torino, Italy), anti-CD86 (CALTAG, Burlingame, Calif.), anti-CD83 (CALTAG, Burlingame, Calif.), anti-CD14 (Becton Dickinson) and rhodamine-conjugated anti-CD80 (Becton Dickinson). DCs were used to prime autologous PBL as follows. DCs were pulsed with 10 μM peptide for 2 hrs at 37° C., irradiated at 30 Gy and added to autologous PBLs at a ratio variable from 3:1 to 6:1 (PBL:DC). PBLs (36×10^6 total) were cultured at 1,5×10^6 cells/2ml of Culture Medium (CM: 50% RPMI 1640/50% X-VIVO (BioWhittaker, […], Mass.)) supplemented with 10% of heat-inactivated autologous plasma and 10 ng/ml IL-7 (R&D Systems, Minneapolis, Minn.) in the presence of autologous peptide-loaded DCs. At day 10-12 of culture, lymphocytes were restimulated with irradiated (30 Gy) autologous peptide-loaded monocytes in CM supplemented with 10% of heat-inactivated autologous plasma. After 24-48 hrs 10 IU/ml IL-2 (Chiron Co., Emeryville, Calif.) and 10 ng/ml IL-7 was added to the CM. Lymphocytes were then restimulated weekly in the same way. Starting from the forth round of stimulation, the specificity of the resulting T-cell lines was evaluated weekly in a cytolytic assay. When any specific activity was detected, CD8+ T-cells were isolated from the bulk culture by CD4+ cells negative depletion using mAb-coated beads (Dynal Dynabeads, Oxoid, Oslo, Norway) and the CTL lines were maintained in culture in RPMI 1640 containing 10% human AB serum supplemented with 50 U/ml IL-2 in the presence of irradiated (70 Gy) PBMCs as feeder. To prime ALK-specific lymphocytes, peptide-pulsed autologous dendritic cells (DCs) derived from peripheral blood mononuclear cells (PBMCs) were used after their in vitro maturation was confirmed by flow cytometric analysis of DC-specific cell surface markers. After a 3-4 week cycle of restimulation T lymphocyte specificity for ALK peptides was evaluated by determining antigen-restricted lysis of peptide loaded T2 cells (FIG. 1A) and NPM/ALK-positive lymphoma cell lines (FIG. 1B).

anti-ALK specific CTLs = test: IFN-γ release assay with anti-ALK CTL lines (ELISA); assay type: cell-based, human; details: for Peptide concentration giving maximal IFN-γ production: titration on T2 cells, peptide-specific CTL lines; for IFN-γ released by p280-89 CTLs: p280-89 loaded autologous LCL
[2] = system: neuroblastoma cell line IMR-32; test: 51Cr release lysis of HLA-A2.1+/ALK+ neuroblastoma cells by peptide-specific CTLs; assay type: cell-based, human; details: IMR-32, treated with INF-γ before use
Protocol: (§1) Cytolytic activity was measured in a conventional 4-hrs ^51Cr release assay. A 10-fold excess of unlabeled K562 cells was added to offset NK activity. Target cells and E:T ratio are indicated in each figure. Specific lysis was determined according to the following formula: % specific lysis=cpm (sample-spontaneous)/cpm (total-spontaneous)×100. HLA-A*0201 blocking of T-cell activity (lysis and/or citokine release) was performed by preincubating target cells with the anti-HLA-A2 mAb CR11.351. […] Because p280-89 and p376-85 peptides lie within the kinase domain, which is present in both native and translocated ALK, we used neuroblastoma cell lines as targets in cytotoxic experiments to further verify the natural processing of these two epitopes.

[3] = system: ALCL lymphoma cell lines SU-DHL1 and SUP-M2; test: 51Cr release lysis of NPM/ALK-expressing ALCL cell lines by peptide-specific CTLs; assay type: cell-based, human; details: SU-DHL1 and SUP-M2, HLA-A2.1+
Protocol: (§2) Cytolytic activity was measured in a conventional 4-hrs ^51Cr release assay. A 10-fold excess of unlabeled K562 cells was added to offset NK activity. Target cells and E:T ratio are indicated in each figure. Specific lysis was determined according to the following formula: % specific lysis=cpm (sample−spontaneous)/cpm (total−spontaneous)×100. HLA-A*0201 blocking of T-cell activity (lysis and/or citokine release) was performed by preincubating target cells with the anti-HLA-A2 mAb CR11.351.
(§3) Thus, it can be concluded that ALK peptide induced CTLs efficiently lyse lymphoma targets, in a HLA-A2 restricted fashion, by relevant antigen-specific recognition.

[4] = system: SK-N-SH (HLA-A2.1-/ALK+) and NB-5 (HLA-A2.1+/ALK-) cell lines; test: 51Cr release lysis of control neuroblastoma lines by peptide-specific CTLs; assay type: cell-based, human
Protocol: as §1

[5] = system: FM3 (melanoma), HCT-116 (colon carcinoma), MCF-7 (breast carcinoma); test: 51Cr release lysis of HLA-A2.1+/ALK- tumor lines by peptide-specific CTLs; assay type: cell-based, human; details: FM3, HCT-116, MCF-7
Protocol: as §2, §3

[6] = biological target: HLA-A*0201/peptide complexes (Homo sapiens, UniProt P04439, D140Y/D185E/D98H/E176V/E277Q/G131W/G231S/I119V/I121R/I166T/I218V/L300P/L318F/N151K/N90K/P208A/P217A/Q86G/Q94H/R138H/R169H/T345S); test: HLA-A*0201/peptide complex stability on T2 cells (DC50); assay type: binding; details: 100 μM peptide overnight, Brefeldin A, 37° C.
Protocol: To assess the HLA-A*0201/peptide complex stability, T2 cells (10^6/ml) were incubated overnight with 100 μM of each peptide in serum free RPMI 1640 supplemented with 100 ng/ml of human β2m at 37° C. Cells were then washed four times to remove free peptides, incubated for 1 hr with 10 μg/ml of Brefeldin A (Sigma-Aldrich, France) in order to block cell surface expression of newly synthesized HLA-A*0201 molecules, washed and incubated at 37° C. for 0, 2, 4, 6, or 8 hours. Subsequently, cells were stained with anti-HLA-A2.1 mAb BB7.2. For each time point, peptide induced HLA-A*0201 expression was calculated as: mean fluorescence value of peptide incubated T2 cells/mean fluorescence value T2 cells in the absence of the peptide.

[7] = system: ALCL lymphoma cell lines SU-DHL1 and SUP-M2; details: cited from earlier work
[8] = biological target: T1, HLA-A*0201 molecules on TAP-deficient T2 cells (human); test: T2 cell HLA-A*0201 stabilisation, 100 uM peptide, flow cytometry with mAb BB7.2; mean of 4 experiments ± SEM
T1 construct: Peptide-receptive class I molecule on T2 cells; also called HLA-A2.1; HLA-A2
Protocol: T2 cells were incubated with 100 μM of peptide in serum-free RPMI 1640 supplemented with 5 μg/ml of human β₂m (Fluka, Buchs, Germany) for 18 hrs at 37° C.

[9] = biological target: T1, HLA-A*0201 molecules on TAP-deficient …; test: T2 cells loaded with 100 uM peptide, Brefeldin A, flow cytometry with BB7.2 over 0-8 h
Description: Subsequently, cells were stained with anti-HLA-A2.1 mAb BB7.2.

| Molecule | R/T HHD mice (responder versus tested mice) [1] | % lysis of peptide-loaded RMA-S/HHD cells [1] | Donor response to peptide stimulation (specific CD8 reactivity) (healthy donor PBLs) | DC50, half-life of disassociation of HLA-A*02.01/peptide complexes [6] | FI (Fluorescence Index) [8] | other results |
| --- | --- | --- | --- | --- | --- | --- |
| GVLLWEIFSL (listed as Homo sapiens) [p376-85] | 3/6 | 24% and 15% | At least one out of the three donors tested were found to be responders |  |  | IFN-γ released by p376-85 CTLs (anti-ALK specific CTLs; donor one, p376-85 pulsed T2 cells, 5 μM peptide): 674 IU/ml; Peptide concentration giving maximal IFN-γ production (anti-ALK specific CTLs): 100 nM; Lysis of HLA-A2.1+/ALK+ neuroblastoma cells by peptide-specific CTLs [2]: efficiently lysed; Lysis of HLA-A2.1+/ALK+ neuroblastoma cells by peptide-specific CTLs ([2]; listed as p375-86): recognize and kill; Lysis of NPM/ALK-expressing ALCL cell lines by peptide-specific CTLs [3]: efficiently recognize and lyse; also recorded: killed these tumor lines; Lysis of HLA-A2.1-/ALK+ or HLA-A2.1+/ALK- neuroblastoma lines by peptide-specific CTLs [4]: No lysis was detected; Lysis of HLA-A2.1+/ALK- tumor lines by peptide-specific CTLs [5]: no activity was detected; also recorded: No lysis above background level |
| SLTANMKEV (listed as Homo sapiens) [p621-29] | 2/6 | 63% and 53% | No specific CD8 reactivity was detected | 4 to 6 h |  |  |
| SLAMLDLLHV (listed as Homo sapiens) [p280-89] | 3/6 |  | At least one out of the three donors tested were found to be responders |  |  | CTL cytotoxicity against NPM/ALK-positive lymphoma cell lines [7]: stimulate CTL cytotoxicity; IFN-γ released by p280-89 CTLs (anti-ALK specific CTLs; donor three, 5 μM peptide): 750 IU/ml; IFN-γ released by p280-89 CTLs (anti-ALK specific CTLs; donor two, 5 μM peptide): 445 IU/ml; Peptide concentration giving maximal IFN-γ production (anti-ALK specific CTLs): 10 nM; Lysis of HLA-A2.1+/ALK+ neuroblastoma cells by peptide-specific CTLs [2]: recognize and kill; also recorded: efficiently lysed; Lysis of NPM/ALK-expressing ALCL cell lines by peptide-specific CTLs [3]: efficiently recognize and lyse; also recorded: killed these tumor lines; Lysis of HLA-A2.1-/ALK+ or HLA-A2.1+/ALK- neuroblastoma lines by peptide-specific CTLs [4]: No lysis was detected; Lysis of HLA-A2.1+/ALK- tumor lines by peptide-specific CTLs [5]: no activity was detected; also recorded: No lysis above background level |
| VLLWEIFSL (listed as Homo sapiens) [p377-85] | 3/6 |  | At least one out of the three donors tested were found to be responders | 4 to 6 h |  |  |
| ALPIEYGPLV (listed as Homo sapiens) [p456-65] | 2/6 |  | At least one out of the three donors tested were found to be responders | 2 to 4 h |  |  |
| AMLDLLHVA (listed as Homo sapiens) [p282-90] | 3/6 | 80% and 56% and 50% | No specific CD8 reactivity was detected | 4 to 6 h |  |  |
| LAMLDLLHV (listed as Homo sapiens) [p281-89] | 2/6 | 42% and 34% | No specific CD8 reactivity was detected |  |  |  |
| SLAMLDLLHV (Lies within the ALK kinase domain) [ALK peptide p280-89 (SLAMLDLLHV)] |  |  |  |  | 5.6 ratio (sample / irrelevant-peptide control) | DC50 (half-life of dissociation of HLA-A*0201/peptide complexes) [9]: 4 hs (hours) |
| VLLWEIFSL [ALK peptide p377-85 (VLLWEIFSL)] |  |  |  |  | 3 ratio (sample / irrelevant-peptide control) |  |
| LAMLDLLHV [ALK peptide p281-89 (LAMLDLLHV)] |  |  |  |  | 3.5 ratio (sample / irrelevant-peptide control) | DC50 (half-life of dissociation of HLA-A*0201/peptide complexes) [9]: 2 hs (hours) |
| ALPIEYGPLV (Downstream of the kinase domain) [ALK peptide p456-65 (ALPIEYGPLV)] |  |  |  |  | 4.2 ratio (sample / irrelevant-peptide control) |  |
| GVLLWEIFSL (also called p375-86) [ALK peptide p376-85 (GVLLWEIFSL)] |  |  |  |  | 2.8 ratio (sample / irrelevant-peptide control) | DC50 (half-life of dissociation of HLA-A*0201/peptide complexes) [9]: 6 hs (hours) |
| AMLDLLHVA [ALK peptide p282-90 (AMLDLLHVA)] |  |  |  |  | 5.4 ratio (sample / irrelevant-peptide control) |  |
